Results published in patent US20130189203A1, “COSMETIC ADDITIVES CONTAINING ALKALI PHOSPHATES” (BK Giulini GmbH, priority 2012, published 2013).

Test: complex formation with iron ions in sun protection formulation, colour measurement (Minolta Chroma-Meter CR 300)
Conditions: formulation + 0.01% iron (III) chloride hexahydrate + 0.09% additive, after 6 weeks
Protocol: As a base formulation, the formulation of a sun protection agent with butyl methoxy dibenzoylmethane was used. This UVA filter forms an intensive red complex with traces of irons The complexing effect was studied using the following formulation:
The aqueous phase of the formulation was prepared by dissolving Phase B in Phase A until a homogeneous phase resulted. This was brought to a temperature of ca. 75-80° C. Phase C was prepared by dissolving Cosmedia Gel CC in the rest of Phase C until a homogeneous phase resulted. This was heated to ca. 75-80° C., followed by addition of phase D, and then Phase E was stirred in. The mixture of phases C, D, and E was added to the aqueous phase, and this mixture was stirred 5 min at 750 rpm. Then the formulation was cooled to room temperature while stirring at 200 rpm, during which at ca. 60° C. the mixture was homogenised 1 min at 11000 rpm with the aid of an Ultra Turrax stirrer.
The following additives were added to the described formulation:
The respective amount of iron (III) chloride hexahydrate, Carephos N (linear alkali polyphosphate), disodium EDTA, Utanit AF (acid diphosphate, for comparison), and [sic] Phoskadent Pyro (alkali diphosphate, for comparison) was worked into the aqueous phase and was removed from the water content [sic].
The evaluation was carried out by colour measurement. Using a Minolta Chroma-Meter CR 300, the colour status of the formulas was determined after 6 weeks. The measurements yielded values which allowed an objective comparison of the individual formulations. The measurements determined 3 values: L, a, and b. The L value describes lightness and darkness, with 0 representing perfect black and 100 perfect white. The a value describes the red-green value, and the b value describes the yellow-blue value. There are different prefix signs on the a and b values, in accordance with the present CIE Lab system, according to which no colour can be simultaneously reddish and greenish or simultaneously yellowish and bluish. Thus, −a represents green, +a represents red, −b represents blue, and +b represents yellow. […]

- L value (difference to white standard): −26.44
- a value (red-green; difference to white standard): +5.18
- b value (yellow-blue; difference to white standard): +4.10
Compound: O=C([O-])CN(CCN(CC(=O)[O-])CC(=O)O)CC(=O)O.[Na+].[Na+] [Disodium EDTA]
